How the values were obtained:
UGT2B7 = molecular target: T1, UGT2B7 (Homo sapiens, UniProt P16662); test: Incubation with recombinant human UGT isoforms: UGT2B7; format: in vitro ADME; settings: recombinant UGT 2 μg/mL
T1 construct: purchased Cypex (Scotland, UK)
Experimental: Incubation of N-hydap (2.5 μM) with eight recombinant human CYP enzymes (CYP1A2, CYP2B6, CYP2C9, CYP2C19, CYP2D6, CYP3A4, CYP4A11 and CYP4F2) at three enzyme concentrations (2, 4, and 20 μg/mL) was conducted following the same procedure as described above for microsomes. Subsequently, incubation with N-hydap (1, 2.5, and 6 μM) and twelve recombinant human UGT isoforms (UGT1A1, UGT1A3, UGT1A4, UGT1A6, UGT1A7, UGT1A8, UGT1A9, UGT1A10, UGT2B4, UGT2B7, UGT2B15 and UGT2B17) was performed, with the enzyme concentration used at 2 μg/mL. All reactions were carried out in triplicate.

MKMs = test: Kinetics of N-hydap glucuronidation in MKMs; format: in vitro ADME, mouse; settings: MKM
Experimental: In this study, the rats were executed by drawing blood from the abdominal aorta and mice were sacrificed with cervical dislocation before the liver and kidneys were excised. The liver and kidneys were removed, and washed with chilled cleansing solution (contains 8 mM KH2PO4, 5.6 mM EDTA·K2·2H2O, 1 mM DTT and 229.6 μM PMSF), homogenized in a tissue homogenate buffer with a pH of 7.4, (consisting of […], 8 mM K2HPO4, 250 mM sucrose, 1 mM EDTA·K2·2H2O and 229.6 μM PMSF). Subsequently, the homogenate was centrifuged at 10,400 rpm at 4 °C for 15 min, and the supernatant was then centrifuged at 35,000 rpm at 4 °C for 60 min. A 250 mM sucrose buffer was added to the pellet to reconstitute and the resuspension was stored at − 80 °C until use. Microsome protein concentrations were measured by Omni-Easy™ Instant BCA Protein Assay Kit.
Various microsomes including HLMs, HKMs, HIMs, RLMs, RKMs, MLMs and MKMs were involved in CYP and UGT reactions of N-hydap. […]
The substrate concentrations used for HLMs were 0.05, 0.5, 2, 2.5, 5, 10, 25, 50, and 100 μM. […] The rates of N-hydap-G by enzymes were expressed as nmol/mg/min, representing the amount of metabolites formed per minute per milligram of protein. Kinetic parameters were determined by analyzing the Eadie–Hofstee plots. […]

CYP2B6 = test: Western blot protein level after 7 days gavage: CYP2B6; format: in vivo; settings: mice, p.o. 7 days; liver
Experimental: Mice were randomly divided into four groups, with eight animals in each group. The mice received oral pretreatment with N-hydap for 7 days at doses of 2, 5, and 10 mg/kg/day, which were considered as the low dose, medium dose, and high dose, respectively. Correspondingly, the control group received PBS. On the 8th day, the liver and kidneys were removed, and organs from eight mice per group were combined to prepare MLMs and MKMs using the detailed procedures above. Subsequently, we determined the activity of CYP and UGT enzymes by specific substrate metabolized with MLMs (0.5 mg/mL) and MKMs (0.2 mg/mL) in vitro. […] In the ex vivo experiments, the activity of enzymes was measured by quantifying the production of various metabolites (nM/mg protein/min). […] The measurements were performed using multiple reaction monitoring (MRM) transitions, which are specific mass spectrometry transitions used for quantification. […]
After 7 days of N-hydap gavage, the liver and kidney tissues were lysed using RIPA buffer supplemented with a 1% protease inhibitor cocktail. […] Western blot signals were detected using an ECL chemiluminescence detection agent. The relative intensity of each protein band was scanned and quantified using Image J software.

T1 sequence (P16662 24-529): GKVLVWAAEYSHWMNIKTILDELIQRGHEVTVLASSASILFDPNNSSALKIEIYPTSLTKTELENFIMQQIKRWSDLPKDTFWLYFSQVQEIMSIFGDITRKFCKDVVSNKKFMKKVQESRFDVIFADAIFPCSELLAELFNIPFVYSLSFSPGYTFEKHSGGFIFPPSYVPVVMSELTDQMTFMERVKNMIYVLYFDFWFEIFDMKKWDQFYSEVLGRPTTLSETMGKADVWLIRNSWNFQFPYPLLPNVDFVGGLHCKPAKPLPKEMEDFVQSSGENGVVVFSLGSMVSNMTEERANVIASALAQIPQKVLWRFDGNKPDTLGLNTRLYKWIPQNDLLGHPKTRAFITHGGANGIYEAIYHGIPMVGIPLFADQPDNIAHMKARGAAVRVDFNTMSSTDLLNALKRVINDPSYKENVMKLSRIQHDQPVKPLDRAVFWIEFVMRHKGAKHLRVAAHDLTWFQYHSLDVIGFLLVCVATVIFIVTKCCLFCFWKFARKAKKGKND

CC1CCC2C(C=CC(C)C2C(=O)c2c(O)c(C3(O)CCC(O)C4OC43)cn(O)c2=O)C1 (stereo not drawn) [N-hydap, N-Hydroxyapiosporamide]
contribution of UGT2B7 to formation of N-hydap-G (UGT2B7): secondary contributors
Km (MKMs): 405 µM
increase of protein levels of CYP2B6 (CYP2B6): 92%
